Source: patent US7674771B2, “Antimicrobial peptides and utilization of the same” (Toagosei Co., Ltd, priority 2003, dated 2010)
Where two headings read alike, the source gives them in different places. Peptide text beside a SMILES is read from it.

Experiments:
[1] = system: Staphylococcus aureus IFO 12732; format: cell-based
Method: (§1) Regarding the antimicrobial peptide (samples 1 to 20) related to the present invention, the antimicrobial activities (minimum inhibitory concentration: MIC) with respect to gram-negative bacteria (Escherichia coli IFO 3972) and gram-positive bacteria (Staphylococcus aureus IFO 12732) were determined by a liquid medium dilution technique using a 96-well microplate.
(§2) First, a drug (synthesized polypeptide) solution having a concentration of 40 times of the highest test concentration was prepared using sterile distilled water, and liquid-bouillon mediums (more specifically, “Mueller Hinton Broth” manufactured by DIFCO) including cation and having drug concentrations of 100, 50, 25, 12.5, 6.3, 3.1, 1.6 and 0.8 μM were respectively produced. The cation included was prepared as follows: dissolving 3.68 g of CaCl2.2H2O in 100 mL of purified water (10 mg.Ca^2+/mL), and thereafter adding 500 μL thereof into 100 mL of Mueller Hinton Broth; and dissolving 8.36 g of MgCl2.6H2O in 100 mL of purified water (10 mg.Mg^2+/mL), and thereafter adding 250 μL thereof into 100 mL of Mueller Hinton Broth. Thereafter, the produced liquid-bouillon mediums including the drug of each concentration were then fed to the 96-well microplate at […] a time.
(§3) At the same time, test bacteria cultured for 18 hours at 37° C. on an agar plate (“Muller Hinton Agar” manufactured by DIFCO) were gathered by scratching with a loop, and then suspended in a sterilized physiological saline. Bacterial suspension 5 μL prepared at an equivalent of 2×10^7 cells/mL was respectively inoculated (number of bacteria to be tested: approximately 1×10^6 cells/mL) onto the drug solution and fed to each well of the above-described microplate. After inoculation, the microplate was then incubated in an incubator at 37° C., and the presence of bacteria was evaluated based on the turbidity 24 hours later. The minimum drug concentration (polypeptide concentration), in which an increased in turbidity caused by bacteria was not detected at the time of measurement, was defined as MIC (minimum inhibitory concentration) (unit: μM) in the present embodiment. In addition, MIC were determined in the same manner using polymyxin B as a comparison.

S. aureus = format: cell-based, Staphylococcus aureus
Method: as §2, §3
Next, the antimicrobial activities (MIC) against gram-positive bacteria (S. aureus) in the presence of serum were tested with the same method as Example 2. […] Thereafter, the produced liquid-bouillon mediums including the drug and the serum of each concentration were then fed to the 96-well microplate at […] a time, and MIC were determined by the method same as Example 2. Sample X in the table is a mixture of sample 1 and sample 16 based on a mass ratio of 1:1. “-” in the table indicate “untested”.

[2] = system: Escherichia coli IFO 3972; test: MIC by liquid medium dilution technique, 96-well microplate, gram-negative bacteria; format: cell-based
Method: as §1, §2, §3

[3] = Mueller Hinton Broth with cation, 37° C., turbidity after 24 hours

Compound	Antimicrobial Activities (MIC) S. aureus ([1]; IFO 12732, 24 h) [µM]	Antimicrobial Activities (MIC) E. coli ([2]; IFO 3972, 24 h) [µM]	further results
polymyxin B [reference compound]			Antimicrobial Activities (MIC) S. aureus [1, 3]: 6.3 µM; Antimicrobial Activities (MIC) against S. aureus, horse serum concentration 10% (S. aureus; horse serum 10%): 6.3 µM; Antimicrobial Activities (MIC) against S. aureus, horse serum concentration 20% (S. aureus; horse serum 20%): 6.3 µM; Antimicrobial Activities (MIC) against S. aureus, horse serum concentration 50% (S. aureus; horse serum 50%): 3.1 µM; Antimicrobial Activities (MIC) E. coli [2, 3]: 1.6 µM
H-RKRKRKRLMWWML-NH2 [sample 13, RKRKRKRLMWWML-CONH2]	3.1	6.3	
H-RIRKKLRLMWWMLR-NH2 [sample 14, RIRKKLRLMWWMLR-CONH2]	3.1	6.3	Antimicrobial Activities (MIC) against S. aureus, horse serum concentration 10% (S. aureus): 6.3 µM
H-RKKRRQRRRLMWWML-NH2 [sample 19, RKKRRQRRRLMWWML-CONH2]	6.3	12.5	
H-RKKKRKVYIGSR-NH2 [comparative sample 7, RKKKRKVYIGSR-CONH2, reference compound]	12.5	100	
H-RAVTLYLGAVAA-NH2 [comparative sample 4, RAVTLYLGAVAA-CONH2, reference compound]			Antimicrobial Activities (MIC) S. aureus [1, 3]: >100 µM; Antimicrobial Activities (MIC) E. coli [2, 3]: >100 µM
H-RKKKRKVLMWWML-NH2 [sample 2, RKKKRKVLMWWML-CONH2]	3.1	12.5	
H-LKRKLQRLMWWMLR-NH2 [sample 18, LKRKLQRLMWWMLR-CONH2]	6.3	12.5	
H-LMWWMLRIRKKLRVGR-NH2 [sample 20, LMWWMLRIRKKLRVGR-CONH2]	3.1	6.3	
H-RKKKRKVLLTAKMR-NH2 [sample 10, RKKKRKVLLTAKMR-CONH2]	12.5	50	
H-RKKKRKVLYLGAVR-NH2 [sample 12, RKKKRKVLYLGAVR-CONH2]	12.5	50	
H-RKKKRKVLMWWMLKPV-NH2 [sample 21, RKKKRKVLMWWMLKPV-CONH2]			Antimicrobial Activities (MIC) against S. aureus, horse serum concentration 10% (S. aureus): 1.6 µM; antimicrobial activity against S. aureus in the presence of serum, in words (S. aureus; horse serum, Table 3): particularly high antimicrobial activity
H-RKKKRKVLMWWMLAR-NH2 [sample 6, RKKKRKVLMWWMLAR-CONH2]			Antimicrobial Activities (MIC) S. aureus [1, 3]: 6.3 µM; Antimicrobial Activities (MIC) against S. aureus, horse serum concentration 10% (S. aureus; horse serum 10%): 3.1 µM; Antimicrobial Activities (MIC) against S. aureus, horse serum concentration 20% (S. aureus; horse serum 20%): 3.1 µM; Antimicrobial Activities (MIC) against S. aureus, horse serum concentration 50% (S. aureus; horse serum 50%): 1.6 µM; Antimicrobial Activities (MIC) E. coli [2, 3]: 12.5 µM
H-RIRKKLRYIGSR-NH2 [comparative sample 6, RIRKKLRYIGSR-CONH2, reference compound]	50	>100	
H-LMWWML-NH2 [comparative sample 3, LMWWML-CONH2, reference compound]	>100	>100	
C[C@@H](O)[C@H](N)C(=O)NCC(=O)N[C@H](C(=O)NCC(N)=O)[C@@H](C)O [comparative sample 2, TGTG-CONH2, reference compound] (H-TGTG-NH2)	>100	>100	
H-LKRKLQRLMWWML-NH2 [sample 15, LKRKLQRLMWWML-CONH2]	3.1	12.5	Antimicrobial Activities (MIC) against S. aureus, horse serum concentration 10% (S. aureus): 6.3 µM
Ac-RKKKRKVLMWWMLR-NH2 [sample 8, Ac-RKKKRKVLMWWMLR-CONH2]	3.1	12.5	Antimicrobial Activities (MIC) against S. aureus, horse serum concentration 10% (S. aureus): 3.1 µM; Antimicrobial Activities (MIC) against S. aureus, horse serum concentration 50% (S. aureus): 6.3 µM
H-LMWWMLRKKKRKV-NH2 [sample 5, LMWWMLRKKKRKV-CONH2]	3.1	50	
H-RIRKKLRLMWWMLAR-NH2 [sample 7, RIRKKLRLMWWMLAR-CONH2]	3.1	6.3	Antimicrobial Activities (MIC) against S. aureus, horse serum concentration 10% (S. aureus): 3.1 µM; Antimicrobial Activities (MIC) against S. aureus, horse serum concentration 20% (S. aureus): 6.3 µM; Antimicrobial Activities (MIC) against S. aureus, horse serum concentration 50% (S. aureus): 6.3 µM
H-RLLTAKMLMWWMLR-NH2 [comparative sample 5, RLLTAKMLMWWMLR-CONH2, reference compound]	12.5	>100	
H-LMWWMLRIRKKLR-NH2 [sample 4, LMWWMLRIRKKLR-CONH2]	3.1	6.3	Antimicrobial Activities (MIC) against S. aureus, horse serum concentration 10% (S. aureus): 6.3 µM
H-RKKKRKVVVYWLLR-NH2 [sample 9, RKKKRKVVVYWLLR-CONH2]	3.1	12.5	
H-RKKKRKVLMWWMLR-OH [sample 16, RKKKRKVLMWWMLR-COOH]	3.1	12.5	Antimicrobial Activities (MIC) against S. aureus, horse serum concentration 10% (S. aureus): 3.1 µM
H-RKKKRKVFFYMVIR-NH2 [sample 11, RKKKRKVFFYMVIR-CONH2]	3.1	6.3	
H-RKRRLMWWMLKKLR-NH2 [sample 17, RKRRLMWWMLKKLR-CONH2]	3.1	6.3	
H-RGDLMWWMLAR-NH2 [comparative sample 1, RGDLMWWMLAR-CONH2, reference compound]	>100	>100	Antimicrobial Activities (MIC) against S. aureus, horse serum concentration 10% (S. aureus): >50 µM
